Source: PubChem BioAssay AID248 (DTP/NCI, 2004)
Values joined by “and” are separate entries in the source; they are usually repeats but may differ in a detail not shown here. Equal entries are not always repeated. Inconclusive results and toxic doses are left out. No stated cut-off is given here; in the data, active means T/C of 150% or more; inactive means T/C below 125%.

Tested on: L1210 leukemia ip in BDF1 mice, survival T/C
Test: NCI In Vivo Anticancer Drug Screen. Data for tumor model L1210 Leukemia (intraperitoneal) in B6D2F1 (BDF1) mice
Conditions: endpoint: mean survival time, higher = longer survival
How it was run: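 Value reflects the ratio of survival in compound-treated mice to survival in vehicle-treated controls, with both groups carrying the same transplanted tumor.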

[1] = dose: 100.0 mg/kg/injection, schedule: Q01DX001 (ip), vehicle: saline
[2] = dose: 200.0 mg/kg/injection, schedule: Q01DX001 (ip), vehicle: saline
[3] = dose: 400.0 mg/kg/injection, schedule: Q01DX001 (ip), vehicle: saline
[4] = dose: 100.0 mg/kg/injection, schedule: Q04DX003 (ip), vehicle: saline
[5] = dose: 200.0 mg/kg/injection, schedule: Q04DX003 (ip), vehicle: saline
[6] = dose: 400.0 mg/kg/injection, schedule: Q04DX003 (ip), vehicle: saline
[7] = dose: 100.0 mg/kg/injection, schedule: Q01DX009 (ip), vehicle: saline with Tween-80
[8] = dose: 200.0 mg/kg/injection, schedule: Q01DX009 (ip), vehicle: saline with Tween-80
[9] = dose: 100.0 mg/kg/injection, schedule: Q01DX009 (ip), vehicle: Klucel (hydroxypropylcellulose) (HPC)
[10] = dose: 200.0 mg/kg/injection, schedule: Q01DX009 (ip), vehicle: Klucel (hydroxypropylcellulose) (HPC)

Measured: T/C

CCN=C(Nc1cccc(C2=NCCN2)c1)c1ccc(C(=NCC)Nc2cccc(C3=NCCN3)c2)cc1
inactive: dose: 2.0 mg/kg/injection, schedule: Q01DX Z (ip), vehicle: carboxymethylcellulose (CMC) 109 % of control | dose: 4.0 mg/kg/injection, schedule: Q01DX Z (ip), vehicle: carboxymethylcellulose (CMC) 95 % of control | dose: 8.0 mg/kg/injection, schedule: Q01DX Z (ip), vehicle: carboxymethylcellulose (CMC) 103 % of control | dose: 16.0 mg/kg/injection, schedule: Q01DX Z (ip), vehicle: carboxymethylcellulose (CMC) 107 % of control

CC(=O)N1CC=C2c3c1ccc(C)c3C(=O)C2C(N)=O (stereo not given)
inactive: [1] 97 % of control | [2] 94 % of control | [3] 94 % of control

O=S(=O)(NC1C2CC3C1N3N2)c1ccccc1 (stereo not given)
inactive: dose: 50.0 mg/kg/injection, schedule: Q04DX003 (ip), vehicle: saline 90 % of control | [4] 114 % of control | [5] 98 % of control

CN1CCCCCC1=O
inactive: [4] 100 % of control | [5] 111 % of control | [6] 101 % of control

COc1cc(C=Nc2ccc(Cl)cc2)ccc1O
inactive: [7] 97 % of control | dose: 100.0 mg/kg/injection, schedule: Q04DX003 (ip), vehicle: saline with Tween-80 120 % of control | [8] 94 % of control | dose: 200.0 mg/kg/injection, schedule: Q04DX003 (ip), vehicle: saline with Tween-80 96 % of control | dose: 400.0 mg/kg/injection, schedule: Q01DX009 (ip), vehicle: saline with Tween-80 101 % of control | dose: 400.0 mg/kg/injection, schedule: Q04DX003 (ip), vehicle: saline with Tween-80 103 % of control

Cc1ccc(Nc2nc(N)nc(N)c2N)cc1C
inactive: dose: 25.0 mg/kg/injection, schedule: Q01DX Z (ip), vehicle: saline 93 % of control

CC(=O)NC1CCC(CC2CCCCC2)CC1 (stereo not given)
inactive: [9] 101 % of control | dose: 100.0 mg/kg/injection, schedule: Q04DX003 (ip), vehicle: Klucel (hydroxypropylcellulose) (HPC) 93 % of control and 102 % of control | [10] 116 % of control | dose: 200.0 mg/kg/injection, schedule: Q04DX003 (ip), vehicle: Klucel (hydroxypropylcellulose) (HPC) 103 % of control and 93 % of control | dose: 400.0 mg/kg/injection, schedule: Q04DX003 (ip), vehicle: Klucel (hydroxypropylcellulose) (HPC) 114 % of control and 93 % of control

OCC1CC2CCC1CC2 (stereo not given)
inactive: dose: 50.0 mg/kg/injection, schedule: Q01DX009 (ip), vehicle: saline with Tween-80 100 % of control | [7] 105 % of control | [8] 108 % of control

COc1ccc2c(c1O)C13CCN(C)C(C2)C1CCC1(C3)OCCO1 (stereo not given)
inactive: [1] 95 % of control | dose: 100.0 mg/kg/injection, schedule: Q01DX009 (ip), vehicle: saline 100 % of control | [2] 104 % of control | dose: 200.0 mg/kg/injection, schedule: Q01DX009 (ip), vehicle: saline 103 % of control | [3] 98 % of control

C/C(=N\NC(=S)Nc1cc(Cl)ccc1Cl)c1ccc(O)cc1O
inactive: dose: 100.0 mg/kg/injection, schedule: Q01DX001 (ip), vehicle: Klucel (hydroxypropylcellulose) (HPC) 88 % of control | dose: 200.0 mg/kg/injection, schedule: Q01DX001 (ip), vehicle: Klucel (hydroxypropylcellulose) (HPC) 96 % of control | dose: 400.0 mg/kg/injection, schedule: Q01DX001 (ip), vehicle: Klucel (hydroxypropylcellulose) (HPC) 95 % of control

O=S(=O)([O-])O.O=S(O)S(=O)O.[Co+3].[NH2-].[NH2-].[NH2-].[NH2-].[NH2-]
inactive: dose: 25.0 mg/kg/injection, schedule: Q04DX002 (ip), vehicle: saline 91 % of control | dose: 50.0 mg/kg/injection, schedule: Q04DX002 (ip), vehicle: saline 97 % of control

O=S(=O)(/C=C/c1ccccc1)N1CCOCC1
inactive: dose: 100.0 mg/kg/injection, schedule: Q01DX001 (ip), vehicle: acetone 111 % of control | dose: 100.0 mg/kg/injection, schedule: Q01DX009 (ip), vehicle: acetone 90 % of control | dose: 100.0 mg/kg/injection, schedule: Q04DX003 (ip), vehicle: acetone 100 % of control | dose: 200.0 mg/kg/injection, schedule: Q01DX001 (ip), vehicle: acetone 102 % of control | dose: 200.0 mg/kg/injection, schedule: Q01DX009 (ip), vehicle: acetone 93 % of control | dose: 200.0 mg/kg/injection, schedule: Q04DX003 (ip), vehicle: acetone 105 % of control | dose: 400.0 mg/kg/injection, schedule: Q01DX001 (ip), vehicle: acetone 101 % of control | dose: 400.0 mg/kg/injection, schedule: Q01DX009 (ip), vehicle: acetone 93 % of control | dose: 400.0 mg/kg/injection, schedule: Q04DX003 (ip), vehicle: acetone 97 % of control

COC(=O)N/N=C/c1ccccc1Cl
inactive: [9] 108 % of control | dose: 100.0 mg/kg/injection, schedule: Q04DX002 (ip), vehicle: Klucel (hydroxypropylcellulose) (HPC) 93 % of control | [10] 121 % of control | dose: 200.0 mg/kg/injection, schedule: Q04DX002 (ip), vehicle: Klucel (hydroxypropylcellulose) (HPC) 104 % of control | dose: 400.0 mg/kg/injection, schedule: Q04DX002 (ip), vehicle: Klucel (hydroxypropylcellulose) (HPC) 96 % of control

COc1cc2ccc(CC(N)=O)cc2cc1OC
inactive: [4] 100 % of control | [5] 97 % of control | [6] 98 % of control
